How the values were obtained:
[1] = test system: late watergrass; assay: Test Example 2: herbicidal activity, application during weed generation under submerged conditions (Table 17, symbol A); type: in vivo, late watergrass (Echinochloa oryzicola); details: AAH 320 g/ha; application during weed generation, submerged conditions
How it was run: (§1)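 Mixed weed seedlings in alluvial soil under a 4 cm water layer, greenhouse-grown at 25–30° C. Compound given as a diluted emulsion into the floodwater at the 1–2 leaf stage; response graded after three weeks.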

[2] = test system: Japanese bulrush; assay: Test Example 2: herbicidal activity, application during weed generation under submerged conditions (Table 17, symbol B); type: in vivo, Japanese bulrush (Schoenoplectus juncoides); details: AAH 320 g/ha; application during weed generation, submerged conditions
How it was run: as §1

[3] = test system: oval-leafed pondweed; assay: Test Example 2: herbicidal activity, application during weed generation under submerged conditions (Table 17, symbol C); type: in vivo, oval-leafed pondweed (Monochoria vaginalis); details: AAH 320 g/ha; application during weed generation, submerged conditions
How it was run: as §1

[4] = test system: barnyard grass; assay: Test Example 3: herbicidal effect by foliage application, Wagner pot (Table 18, symbol H); type: in vivo, barnyard grass (Echinochloa crus-galli); details: 320 g/ha
How it was run: (§2)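 Plants were sown in alluvial soil held under 0.1–0.5 cm standing water and grown 14 days in a greenhouse at 25–30 °C. An emulsifiable formulation, water-diluted to the set dose, was then sprayed onto the foliage, and effects were scored three weeks later using previously defined criteria.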

[5] = test system: Chinese sprangletop; assay: Test Example 3: herbicidal effect by foliage application, Wagner pot (Table 18, symbol D); type: in vivo, chinese sprangletop (Leptochloa chinensis); details: 320 g/ha
How it was run: as §2

[6] = test system: rice flat sedge; assay: Test Example 3: herbicidal effect by foliage application, Wagner pot (Table 18, symbol E); type: in vivo, rice flat sedge (Cyperus iria); details: 320 g/ha
How it was run: as §2

[7] = test system: southern crabgrass; assay: Test Example 4: herbicidal effect by soil treatment (Table 19, symbol F); type: in vivo, southern crabgrass (Digitaria ciliaris); details: amount of applied herbicide 320 g/ha
How it was run: (§3)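 In this soil treatment, the formulated compound reached the seeds only through the soil: seeds were buried about 1.5 cm deep in sterilized diluvial soil, then the diluted emulsion was sprayed over the surface. After three weeks at 25° C. to 30° C. in a greenhouse, effects were graded on criteria from an earlier test.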

[8] = test system: green foxtail; assay: Test Example 4: herbicidal effect by soil treatment (Table 19, symbol G); type: in vivo, green foxtail (Setaria viridis); details: amount of applied herbicide 320 g/ha
How it was run: as §3

[9] = test system: barnyard grass; assay: Test Example 4: herbicidal effect by soil treatment (Table 19, symbol H); type: in vivo, barnyard grass (Echinochloa crus-galli); details: amount of applied herbicide 320 g/ha
How it was run: as §3

[10] = test system: wild oat; assay: Test Example 4: herbicidal effect by soil treatment (Table 19, symbol I); type: in vivo, wild oat (Avena fatua); details: amount of applied herbicide 320 g/ha
How it was run: as §3

[11] = test system: blackgrass; assay: Test Example 4: herbicidal effect by soil treatment (Table 19, symbol J); type: in vivo, blackgrass (Alopecurus myosuroides); details: amount of applied herbicide 320 g/ha
How it was run: as §3

[12] = test system: Italian ryegrass; assay: Test Example 4: herbicidal effect by soil treatment (Table 19, symbol K); type: in vivo, Italian ryegrass (Lolium multiflorum); details: amount of applied herbicide 320 g/ha
How it was run: as §3

[13] = test system: windgrass; assay: Test Example 4: herbicidal effect by soil treatment (Table 19, symbol L); type: in vivo, windgrass (Apera spica-venti); details: amount of applied herbicide 320 g/ha
How it was run: as §3

[14] = test system: velvetleaf; assay: Test Example 4: herbicidal effect by soil treatment (Table 19, symbol M); type: in vivo, velvetleaf (Abutilon theophrasti); details: amount of applied herbicide 320 g/ha
How it was run: as §3

[15] = test system: redroot pigweed; assay: Test Example 4: herbicidal effect by soil treatment (Table 19, symbol N); type: in vivo, redroot pigweed (Amaranthus retroflexus); details: amount of applied herbicide 320 g/ha
How it was run: as §3

[16] = test system: lambsquarters; assay: Test Example 4: herbicidal effect by soil treatment (Table 19, symbol O); type: in vivo, lambsquarters (Chenopodium album); details: amount of applied herbicide 320 g/ha
How it was run: as §3

[17] = test system: chickweed; assay: Test Example 4: herbicidal effect by soil treatment (Table 19, symbol P); type: in vivo, common chickweed (Stellaria media); details: amount of applied herbicide 320 g/ha
How it was run: as §3

[18] = test system: false cleavers; assay: Test Example 4: herbicidal effect by soil treatment (Table 19, symbol Q); type: in vivo, false cleavers (Galium spurium); details: amount of applied herbicide 320 g/ha
How it was run: as §3

[19] = test system: persian speedwell; assay: Test Example 4: herbicidal effect by soil treatment (Table 19, symbol R); type: in vivo, Persian speedwell (Veronica persica); details: amount of applied herbicide 320 g/ha
How it was run: as §3

[20] = test system: southern crabgrass; assay: Test Example 5: herbicidal effect by foliage application, plastic box (Table 20, symbol F); type: in vivo, southern crabgrass (Digitaria ciliaris); details: foliage application, 320 g/ha, evaluated three weeks after application
How it was run: (§4)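 Plants were sown into sterilized diluvial soil under about 1.5 cm cover and kept in a greenhouse at 25° C. to 30° C. Fourteen days on, foliage received an even spray of the diluted emulsion. Herbicidal or crop effect was judged three weeks afterwards.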

[21] = test system: green foxtail; assay: Test Example 5: herbicidal effect by foliage application, plastic box (Table 20, symbol G); type: in vivo, green foxtail (Setaria viridis); details: foliage application, 320 g/ha, evaluated three weeks after application
How it was run: as §4

[22] = test system: barnyard grass; assay: Test Example 5: herbicidal effect by foliage application, plastic box (Table 20, symbol H); type: in vivo, barnyard grass (Echinochloa crus-galli); details: foliage application, 320 g/ha, evaluated three weeks after application
How it was run: as §4

[23] = test system: wild oat; assay: Test Example 5: herbicidal effect by foliage application, plastic box (Table 20, symbol I); type: in vivo, wild oat (Avena fatua); details: foliage application, 320 g/ha, evaluated three weeks after application
How it was run: as §4

[24] = test system: blackgrass; assay: Test Example 5: herbicidal effect by foliage application, plastic box (Table 20, symbol J); type: in vivo, blackgrass (Alopecurus myosuroides); details: foliage application, 320 g/ha, evaluated three weeks after application
How it was run: as §4

[25] = test system: Italian ryegrass; assay: Test Example 5: herbicidal effect by foliage application, plastic box (Table 20, symbol K); type: in vivo, Italian ryegrass (Lolium multiflorum); details: foliage application, 320 g/ha, evaluated three weeks after application
How it was run: as §4

[26] = test system: windgrass; assay: Test Example 5: herbicidal effect by foliage application, plastic box (Table 20, symbol L); type: in vivo, windgrass (Apera spica-venti); details: foliage application, 320 g/ha, evaluated three weeks after application
How it was run: as §4

[27] = test system: velvetleaf; assay: Test Example 5: herbicidal effect by foliage application, plastic box (Table 20, symbol M); type: in vivo, velvetleaf (Abutilon theophrasti); details: foliage application, 320 g/ha, evaluated three weeks after application
How it was run: as §4

[28] = test system: redroot pigweed; assay: Test Example 5: herbicidal effect by foliage application, plastic box (Table 20, symbol N); type: in vivo, redroot pigweed (Amaranthus retroflexus); details: foliage application, 320 g/ha, evaluated three weeks after application
How it was run: as §4

[29] = test system: lambsquarters; assay: Test Example 5: herbicidal effect by foliage application, plastic box (Table 20, symbol O); type: in vivo, lambsquarters (Chenopodium album); details: foliage application, 320 g/ha, evaluated three weeks after application
How it was run: as §4

[30] = test system: chickweed; assay: Test Example 5: herbicidal effect by foliage application, plastic box (Table 20, symbol P); type: in vivo, common chickweed (Stellaria media); details: foliage application, 320 g/ha, evaluated three weeks after application
How it was run: as §4

[31] = test system: false cleavers; assay: Test Example 5: herbicidal effect by foliage application, plastic box (Table 20, symbol Q); type: in vivo, false cleavers (Galium spurium); details: foliage application, 320 g/ha, evaluated three weeks after application
How it was run: as §4

[32] = test system: persian speedwell; assay: Test Example 5: herbicidal effect by foliage application, plastic box (Table 20, symbol R); type: in vivo, Persian speedwell (Veronica persica); details: foliage application, 320 g/ha, evaluated three weeks after application
How it was run: as §4

| SMILES | herbicidal effect rating, A: late watergrass [1] | herbicidal effect rating, B: Japanese bulrush [2] | herbicidal effect rating, C: oval-leafed pondweed [3] | herbicidal effect on H (barnyard grass), rating 0-5 [4] | herbicidal effect on D (Chinese sprangletop), rating 0-5 [5] | herbicidal effect on E (rice flat sedge), rating 0-5 [6] | F: southern crabgrass, herbicidal effect rating [7] | G: green foxtail, herbicidal effect rating [8] | H: barnyard grass, herbicidal effect rating [9] | I: wild oat, herbicidal effect rating [10] | J: blackgrass, herbicidal effect rating [11] | K: Italian ryegrass, herbicidal effect rating [12] | L: windgrass, herbicidal effect rating [13] | M: velvetleaf, herbicidal effect rating [14] | N: redroot pigweed, herbicidal effect rating [15] | O: lambsquarters, herbicidal effect rating [16] | P: chickweed, herbicidal effect rating [17] | Q: false cleavers, herbicidal effect rating [18] | R: persian speedwell, herbicidal effect rating [19] | herbicidal effect on F: southern crabgrass [20] | also measured |
| --- | --- | --- | --- | --- | --- | --- | --- | --- | --- | --- | --- | --- | --- | --- | --- | --- | --- | --- | --- | --- | --- |
| CCCC(=O)Oc1c(C)nn(C)c(=O)c1-c1c(-c2ccc(OC)cc2)sc2ccc(Cl)cc12 [2-104] | 0 (Herbicidal rate of 5% or less (almost no effect)) | 0 (Herbicidal rate of 5% or less (almost no effect)) | 2 (Herbicidal rate of 20% or more and less than 40%) | 3 (Herbicidal rate of 40% or more and less than 70%) | 0 (Herbicidal rate of 5% or less (almost no effect)) | 5 (Herbicidal rate of 90% or more (almost completely withered)) | 0 (Herbicidal rate of 5% or less (almost no effect)) | 0 (Herbicidal rate of 5% or less (almost no effect)) | 0 (Herbicidal rate of 5% or less (almost no effect)) | 0 (Herbicidal rate of 5% or less (almost no effect)) | 0 (Herbicidal rate of 5% or less (almost no effect)) | 0 (Herbicidal rate of 5% or less (almost no effect)) | 0 (Herbicidal rate of 5% or less (almost no effect)) | 3 (Herbicidal rate of 40% or more and less than 70%) | 4 (Herbicidal rate of 70% or more and less than 90%) | 3 (Herbicidal rate of 40% or more and less than 70%) | 3 (Herbicidal rate of 40% or more and less than 70%) | 0 (Herbicidal rate of 5% or less (almost no effect)) | 5 (Herbicidal rate of 90% or more (almost completely withered)) | 0 (Herbicidal rate of 5% or less (almost no effect)) | herbicidal effect on G: green foxtail [21]: 0 (Herbicidal rate of 5% or less (almost no effect)); herbicidal effect on H: barnyard grass [22]: 0 (Herbicidal rate of 5% or less (almost no effect)); herbicidal effect on I: wild oat [23]: 0 (Herbicidal rate of 5% or less (almost no effect)); herbicidal effect on J: blackgrass [24]: 0 (Herbicidal rate of 5% or less (almost no effect)); herbicidal effect on K: Italian ryegrass [25]: 0 (Herbicidal rate of 5% or less (almost no effect)); herbicidal effect on L: windgrass [26]: 0 (Herbicidal rate of 5% or less (almost no effect)); herbicidal effect on M: velvetleaf [27]: 3 (Herbicidal rate of 40% or more and less than 70%); herbicidal effect on N: redroot pigweed [28]: 3 (Herbicidal rate of 40% or more and less than 70%); herbicidal effect on O: lambsquarters [29]: 2 (Herbicidal rate of 20% or more and less than 40%); herbicidal effect on P: chickweed [30]: 5 (Herbicidal rate of 90% or more (almost completely withered)); herbicidal effect on Q: false cleavers [31]: 1 (Herbicidal rate of 5% or more and less than 20%); herbicidal effect on R: persian speedwell [32]: 5 (Herbicidal rate of 90% or more (almost completely withered)) |
| CCCC(=O)Oc1c(C)nn(C)c(=O)c1-c1c(-c2ccc(OC(C)C)cc2)sc2ccc(Cl)cc12 [2-108] | 3 (Herbicidal rate of 40% or more and less than 70%) | 0 (Herbicidal rate of 5% or less (almost no effect)) | 0 (Herbicidal rate of 5% or less (almost no effect)) | 4 (Herbicidal rate of 70% or more and less than 90%) | 0 (Herbicidal rate of 5% or less (almost no effect)) | 2 (Herbicidal rate of 20% or more and less than 40%) | 0 (Herbicidal rate of 5% or less (almost no effect)) | 0 (Herbicidal rate of 5% or less (almost no effect)) | 0 (Herbicidal rate of 5% or less (almost no effect)) | 0 (Herbicidal rate of 5% or less (almost no effect)) | 0 (Herbicidal rate of 5% or less (almost no effect)) | 0 (Herbicidal rate of 5% or less (almost no effect)) | 0 (Herbicidal rate of 5% or less (almost no effect)) | 0 (Herbicidal rate of 5% or less (almost no effect)) | 0 (Herbicidal rate of 5% or less (almost no effect)) | 0 (Herbicidal rate of 5% or less (almost no effect)) | 0 (Herbicidal rate of 5% or less (almost no effect)) | 0 (Herbicidal rate of 5% or less (almost no effect)) | 4 (Herbicidal rate of 70% or more and less than 90%) | 0 (Herbicidal rate of 5% or less (almost no effect)) | herbicidal effect on G: green foxtail [21]: 0 (Herbicidal rate of 5% or less (almost no effect)); herbicidal effect on H: barnyard grass [22]: 0 (Herbicidal rate of 5% or less (almost no effect)); herbicidal effect on I: wild oat [23]: 0 (Herbicidal rate of 5% or less (almost no effect)); herbicidal effect on J: blackgrass [24]: 0 (Herbicidal rate of 5% or less (almost no effect)); herbicidal effect on K: Italian ryegrass [25]: 0 (Herbicidal rate of 5% or less (almost no effect)); herbicidal effect on L: windgrass [26]: 0 (Herbicidal rate of 5% or less (almost no effect)); herbicidal effect on M: velvetleaf [27]: 2 (Herbicidal rate of 20% or more and less than 40%); herbicidal effect on N: redroot pigweed [28]: 3 (Herbicidal rate of 40% or more and less than 70%); herbicidal effect on O: lambsquarters [29]: 1 (Herbicidal rate of 5% or more and less than 20%); herbicidal effect on P: chickweed [30]: 4 (Herbicidal rate of 70% or more and less than 90%); herbicidal effect on Q: false cleavers [31]: 0 (Herbicidal rate of 5% or less (almost no effect)); herbicidal effect on R: persian speedwell [32]: 5 (Herbicidal rate of 90% or more (almost completely withered)) |

Source: US20230085307A1, “PYRIDAZINONE COMPOUND AND HERBICIDE” (NISSAN CHEMICAL CORPORATION, priority 2019, published 2023)
